Measurements as given in patent publication US8871227B2, “Process and formulation containing epothilones and analogs thereof” (Bristol-Myers Squibb Company, priority 2003, dated 2014).

Assays:
Type in all cases: physicochemical
[1] = Stability of aqueous solution: time for 5% drug loss (t95); conditions: 25°
Description: The compounds represented by formulae I and II present challenges from the viewpoint of pharmaceutical compounding for administration to patients for a number of reasons. […] Of particular concern with the present invention, compounds of formulae I and II can degrade when exposed to low pH, e.g., certain compounds of formula I presumably are susceptible to acids catalyzed hydrolysis. For example, the time for 5% drug loss (t95) at 25° for an aqueous solution of compound II is approximately 2 h at pH 7, but less than 0.2 h at pH 2.5.

pH of maximum stability = experiment: pH of maximum stability
Text: The term, “pH of maximum stability,” or “maximum stability pH” means the pH at which a compound (or mixture of compounds) is least likely to degrade, or at which the compound (or mixtures of compounds) will degrade most slowly. Each compound or mixture of compounds will have a pH of maximum stability. However, the pH of maximum stability also may encompass a range of pH's. […] In this case, the pH of maximum stability is 7.1±1.
For example, in the embodiment involving use of the epothilone analog of formula II, the pH of maximum stability is about 7.0. A preferred dose of this epothilone analog when diluted in the infusion fluid is approximately in the range of about 0.05 to about 1.0 mg/mL, more preferably in the range of about 0.1 to about 0.8 mg/mL, and most preferably in the range of about 0.2 to about 0.6 mg/mL. The inventors herein have determined that for this epothilone analog and preferred dose, an advantageous buffer is sodium lactate, and a preferred concentration of this buffer in the formulation for administration is in the range of about 3 to about 30 mg/mL, more preferably in the range of about 10 to about 20 mg/mL, even more preferably at a concentration of about 15 mg/mL. […]

[2] = Infusion stability: loss of potency over six hour hold time after dilution in infusion fluid; conditions: for loss of potency (degradation of active compound) / loss of potency (degradation in active compound): 0.2 mg/mL; for loss of potency (degradation of active compound): with buffer and base; for loss of potency (degradation in active compound): without buffer and base
Description: To illustrate the surprising advantages of the invention, a formulation including the compound of formula II was diluted in a 0.9% Sodium Chloride Injection infusion fluid to a concentration of 0.2 mg/mL, without buffer and base. […] As a further illustration, a formulation including the compound of formula II was diluted in a 5% dextrose injection fluid to a concentration of 0.2 mg/mL, without buffer and base.

[3] = Degradation during dissolution and lyophilization; conditions: tertiary butanol/water 1:1, lyophilized at −30° C. about 100 hours, dried at 25° C. about 35 hours, light protected
Description: [1S-[1R*,3R*(E),7R*,10S*,11R*,12R*,16S*]]-7,11-Dihydroxy-8,8,10,12,16-pentamethyl-3-[1-methyl-2-(2-methyl-4-thiazolyl)ethenyl]-4-aza-17-oxabicyclo[14.0]heptadecane-5,9-dione, 4.04 g, was wetted/partially dissolved with 500 mL of a 4:1 mixture of tertiary butanol and Water for Injection USP which had been pre-cooled to 5° C. Once the drug powder had become completely wetted, dissolution was completed by the addition of […] Water for Injection, thereby making the final solution a 1:1 mixture. The dissolution was carried out under protection from light.
The solution formed above was promptly lyophilized in a Virtis GENESIS lyophilizer at −30° C. under light protected conditions over a period of about 100 hours. The resultant lyophilized product (lyophile) was then further dried at 25° C. under high vacuum for about 35 hours. […] The lyophile was packaged under sterile conditions into 15 mL vials, each containing 20 mg of drug and standard excess to allow for vial/needle/syringe loss.

time for 5% drug loss (t95) ([1]; pH 2.5): less than 0.2 h
time for 5% drug loss (t95) ([1]; pH 7): approximately 2 h
pH of maximum stability (pH of maximum stability): about 7.0
loss of potency (degradation of active compound) ([2]; 0.9% Sodium Chloride Injection): about 3.6%
loss of potency (degradation in active compound) ([2]; 0.9% Sodium Chloride Injection): about 6%
enhancement in stability ([2]; 0.9% Sodium Chloride Injection, with vs without buffer and base): approximately 40%
loss of potency (degradation of active compound) ([2]; 5% dextrose injection fluid): about 4%
loss of potency (degradation in active compound) ([2]; 5% dextrose injection fluid): about 13%
enhancement of stability ([2]; 5% dextrose injection fluid, with vs without buffer and base): greater than 65%
degradation of the drug during dissolution, lyophilization and drying [3]: No detectable degradation
Structure (SMILES): C/C(=C\c1csc(C)n1)C1CC2O[C@]2(C)CCC[C@H](C)[C@H](O)[C@@H](C)C(=O)C(C)(C)[C@@H](O)CC(=O)N1 (relative stereo) [II, [1S-[1R*,3R*(E),7R*,10S*,11R*,12R*,16S*]]7,11-Dihydroxy-8,8,10,12,16-pentamethyl-3-[1-methyl-2-(2-methyl-4-thiazolyl)ethenyl]-4-aza-7oxabicyclo[14.1.0]heptadecane-5,9-dione]
